These are literature values, as cited in US6455592B1, “Use of hydrophilic penetration agents in dermatological compositions for the treatment of onychomycoses, and corresponding compositions” (Novartis AG, priority 1991, dated 2002).

Structures can show the parent of a compound that is named as a salt.

The conditions of the data set: oral treatment with 250 mg/day over 8 weeks.

For `CN(C/C=C/C#CC(C)(C)C)Cc1cccc2ccccc12` [terbinafine-HCl, Terbinafine hydrochloride], the “concentration of terbinafine-HCl in the nails” value is listed as 0.4±0.15 ng of terbinafine-HCl per mg of nail material.
